Measured values: article PMC10980815, “Cell surface patching via CXCR4-targeted nanothreads for cancer metastasis inhibition” (Nature Communications, 2024)
Where “and” joins values, the source holds several entries; their conditions need not be identical. Equal values may be shown once. Ends that are not written are not given here.

Columns and labels:
[1] = test system: orthotopic 4T1 breast tumors; assay: PDT efficacy in vivo: primary tumor growth, survival, lung metastasis; parameters: species or system female BALB/c mice
Procedure: (§1) 4T1 cells (1 × 10^6 cells) were injected into the third mammary fat pad of female BALB/c mice (6–8-week). When tumor volumes reached nearly […] on day 7 after tumor inoculation, mice were randomly divided into 8 groups (n = 8 per group). For four groups without laser irradiation (−), mice were intravenously injected with the following samples: (1) saline on day 7, 14, 21, and 28, (2) P-PS on day 7, 14, 21, and 28, (3) P-BS-PS on day 7, 14, 21, and 28, or (4) P-BS-CM1 on day 7, 14, 21, and 28, followed by P-PS-CM2 on day 8, 15, 22, and 29 (5 mg/kg BS equivalence, CM1:CM2 1:1 mol%, 2.5 mg/kg PS equivalence), respectively. For four groups with laser irradiation (+), mice were treated with the same regimens and irradiated at 650 nm laser (580 mW/cm^2, 5 min) on day 9, 16, 23 and 30. Tumor volumes and mice survivals were recorded every other day. For the investigation of immune response and lung metastasis, 4T1 tumor-bearing female BALB/c mice (6–8-week, tumor volume~100 mm^3) were randomly divided into 8 groups (n = 5 per group) and given three rounds of above treatments. On day 28, lungs and tumors were harvested. lungs were fixed with Bouin’s solution. The pulmonary metastatic nodules were counted and analyzed by hematoxylin-eosin staining. Single-cell suspensions of tumor tissues were stained with anti-CD45-PerCP/Cy5.5 (1:300 dilution) and anti-calreticulin recombinant rabbit monoclonal antibody (1:500 dilution) at 4 °C for 1 h, and then stained with goat anti-rabbit IgG H&L Alexa Fluor® 647 (1:1000 dilution, 4 °C, 45 min), followed by flow cytometry analysis. ATP and HMGB1 concentrations in the supernatant of cell suspension were measured using a luciferase-based ATP assay kit and a mouse HMGB1 ELISA kit, respectively. Single-cell suspensions of tumors were stained with FITC anti-mouse CD3 antibody (1:300 dilution), PerCP/Cyanine5.5 anti-mouse CD4 antibody (1:300 dilution), anti-CD8α-APC (1:300 dilution), and anti-Foxp3-PE (1:300 dilution) for flow cytometry analysis of T cell subtypes (CD8^+ T cells, CD4^+ effector T cells, and Foxp3^+ regulatory T cells), and stained with PE anti-mouse/human CD11b antibody (1:300 dilution) and FITC anti-mouse Ly-6G/Ly-6C (Gr-1) antibody (1:300 dilution) for flow cytometry analysis of MDSCs (CD11b^+Gr1^+). Cytotoxic T cells in tumor tissues were investigated with immunofluorescent staining of IFN-γ and flow cytometry analysis using anti-IFN-γ-PE (1:300 dilution). For CD8-depletion assay, 4T1 tumor-bearing female BALB/c mice (6–8-week, tumor volume~100 mm^3) were randomly divided into 3 groups (n = 8 per group). Mice were intravenously given four doses of P-BS-CM1 on day 7, 14, 21 and 28, combined with P-PS-CM2 on day 8, 15, 22 and 29 (5 mg/kg BS equivalence, CM1:CM2 1:1 mol%, 2.5 mg/kg PS equivalence) in the presence or absence of InvivoMab anti-mouse CD8α (100 μg/mice). Mice were irradiated at 650 nm laser (580 mW/cm^2, 5 min) on day 9, 16, 23 and 30. Tumor volumes and mice survivals were recorded every other day.

[2] = ζ-potential (Zetasizer); type: physicochemical; conditions: Malvern Zetasizer Nano ZS90; mean ± SD
Procedure: (§2) The average molecular weight (Mw) and polydispersity (PDI) of the HPMA copolymer conjugates were determined by gel permeation chromatography (GPC) on an AKTA purifier equipment with a Superose 6 10/300 GL analytical column (GE Healthcare, USA) and a differential refraction detector (KNAUER, 2300, Germany). Hydrodynamic sizes and zeta potentials were determined using a Malvern Zetasizer Nano ZS90 equipment (Malvern Instruments Ltd, Malvern, UK). The contents of BS, CM1, and CM2 were determined using a bicinchoninic acid (BCA) protein assay. The PS concentration was determined by ultraviolet-visible (UV-Vis) spectroscopy at its characteristic absorbance peak (660 nm).

[3] = Hydrodynamic size / size distribution by dynamic light scattering; type: physicochemical; conditions: Malvern Zetasizer Nano ZS90, mean ± SD
Procedure: as §2
To investigate the coiled-coil assembly, varying CM1-to-CM2 ratios (3:1, 1:1, and 1:3) of P-BS-CM1 and P-CM2 were mixed in 10 mM PBS (pH 7.4) at 25 °C for 10 min. The total polymer concentration was kept constant at 10 mg/mL. Circular dichroism spectra, size distribution, and rheological properties of P-BS-CM1, P-CM2, and their mixture were measured. The surface morphology of P-BS-CM1 and the mixture (P-BS-CM1 + P-CM2) was observed using scanning electron microscopy. Additionally, for the FRET assay, CM1-to-CM2 equimolar of P-BS-CM1-Cy5 and P-CM2-Cy3 were mixed in 10 mM PBS (pH 7.4) at 25 °C for 10 min. Fluorescent spectra of P-BS-CM1-Cy5, P-CM2-Cy3, and the mixture (P-BS-CM1-Cy5+P-CM2-Cy3) were recorded at the Cy3 excitation wavelength of 550 nm.

[4] = test system: orthotopic 4T1 breast tumors; assay: Intratumoral ICD hallmarks (CRT, ATP, HMGB1); type: in vivo, female BALB/c mice; conditions: individual mice
Procedure: as §1

[5] = test system: orthotopic 4T1 breast tumors; assay: IFN-γ+CD8+ T lymphocytes in primary tumors; type: in vivo, female BALB/c mice; conditions: groups marked (+) (laser irradiation); individual mice, n = 5
Procedure: 4T1 cells (1 × 10^6 cells) were injected into the third mammary fat pad of female BALB/c mice (6–8-week). When tumor volumes reached nearly […] on day 7 after tumor inoculation, mice were randomly divided into 8 groups (n = 8 per group). For four groups without laser irradiation (−), mice were intravenously injected with the following samples: (1) saline on day 7, 14, 21, and 28, (2) P-PS on day 7, 14, 21, and 28, (3) P-BS-PS on day 7, 14, 21, and 28, or (4) P-BS-CM1 on day 7, 14, 21, and 28, followed by P-PS-CM2 on day 8, 15, 22, and 29 (5 mg/kg BS equivalence, CM1:CM2 1:1 mol%, 2.5 mg/kg PS equivalence), respectively. For four groups with laser irradiation (+), mice were treated with the same regimens and irradiated at 650 nm laser (580 mW/cm^2, 5 min) on day 9, 16, 23 and 30. Tumor volumes and mice survivals were recorded every other day. For the investigation of immune response and lung metastasis, 4T1 tumor-bearing female BALB/c mice (6–8-week, tumor volume~100 mm^3) were randomly divided into 8 groups (n = 5 per group) and given three rounds of above treatments. […] The pulmonary metastatic nodules were counted and analyzed by hematoxylin-eosin staining. […] ATP and HMGB1 concentrations in the supernatant of cell suspension were measured using a luciferase-based ATP assay kit and a mouse HMGB1 ELISA kit, respectively. […] Tumor volumes and mice survivals were recorded every other day.

[6] = test system: 4T1 cells; assay: Calreticulin exposure in vitro (flow cytometry); type: cell-based, murine
Procedure: (§3) For the investigation of CXCR4 downstream PI3K signals, cells were fixed, permeabilized, and stained with anti-PI 3 kinase p85 alpha recombinant rabbit monoclonal antibody (1:500 dilution, 4 °C, 1 h) and goat anti-rabbit IgG H&L Alexa Fluor® 647 (1:1000 dilution, 4 °C, 30 min), followed by flow cytometry analysis. For the investigation of ICD hallmarks, cells were stained with anti-calreticulin recombinant rabbit monoclonal antibody (1:500 dilution, 4 °C, 1 h) and goat anti-rabbit IgG H&L Alexa Fluor® 647 (1:1000 dilution, 4 °C, 40 min), followed by flow cytometry analysis. ATP levels in the cell culture supernatant were measured following the protocol of luciferase-based ATP assay kit.

[7] = test system: 4T1 cells; assay: Photosensitizer cell binding (flow cytometry, confocal); type: cell-based, murine
Procedure: For cell binding investigation, 4T1 cells (4 × 10^5 cells/well) were seeded onto 12-well plates (NEST Biotechnology), and treated with i) P-PS for 1 h, ii) P-BS-PS for 1 h, or iii) P-BS-CM1 for 1 h followed by P-PS-CM2 for another 1 h (50 μg/mL BS equivalence, CM1:CM2 1:1 mol%, 25 μg/mL PS equivalence), respectively. Subsequently, cells were washed three times with PBS and observed using flow cytometry and confocal microscopy.

[8] = test system: 4T1 cells; assay: Extracellular ATP release in vitro; type: cell-based, murine
Procedure: as §3

[9] = groups marked (+) (laser irradiation), n = 5
[10] = groups marked (-) (no laser irradiation), n = 5

P-BS-PS: BS-multivalently-modified polymer-PS conjugate (LGASWHRPDKCCLGYQKRPLPA; not fully specified (residues 11, 12); cysteine pairing not given here; also: chlorin e6 photosensitizer on polymer)
Number of lung metastatic nodules ([1]; (+) with laser, mouse 1 of 5): 11
Number of lung metastatic nodules ([1]; (+) with laser, mouse 2 of 5): 13
Number of lung metastatic nodules ([1]; (+) with laser, mouse 3 of 5): 6
Number of lung metastatic nodules ([1]; (+) with laser, mouse 4 of 5): 9
Number of lung metastatic nodules ([1]; (+) with laser, mouse 5 of 5): 7
Number of lung metastatic nodules ([1]; (-) no laser, mouse 1 of 5): 24
Number of lung metastatic nodules ([1]; (-) no laser, mouse 2 of 5): 27
Number of lung metastatic nodules ([1]; (-) no laser, mouse 3 of 5): 22
Number of lung metastatic nodules ([1]; (-) no laser, mouse 4 of 5): 23
Number of lung metastatic nodules ([1]; (-) no laser, mouse 5 of 5): 21
ζ-potential [2]: -18.24±2.31 mV
Size [3]: 22.4±1.4 nm
ATP per tumor weight [4, 9]: 345.1 µmol/g and 303.2 µmol/g and 231.5 µmol/g and 287.7 µmol/g and 298.1 µmol/g
CRT expression in tumor (MFI) [4, 9]: 34335.1 MFI and 38552.2 MFI and 29253.6 MFI and 35944.5 MFI and 36607.6 MFI
HMGB1 per tumor weight [4, 9]: 80.13 ng/g and 70.54 ng/g and 88.61 ng/g and 92.56 ng/g and 89.1 ng/g
ATP per tumor weight [4, 10]: 191.5 µmol/g and 151.37 µmol/g and 120.13 µmol/g and 106.4 µmol/g and 205.73 µmol/g
HMGB1 per tumor weight [4, 10]: 19.76 ng/g and 15.34 ng/g and 14.57 ng/g and 18.95 ng/g and 19.22 ng/g
CRT expression in tumor (MFI) ([4]; groups marked (-) (no laser irradiation), n = 5, one line each): 27343 MFI and 22321 MFI and 19321 MFI and 23431 MFI and 20197 MFI
IFN-γ+ cells (%) in tumor-infiltrating CD8+ cells [5]: 13.27% and 14.75% and 15.74% and 11.82% and 15.65%
CRT positive cells (%) ([6]; replicate 1): 20.53%
CRT positive cells (%) ([6]; replicate 2): 18.21%
CRT positive cells (%) ([6]; replicate 3): 17.1%
Photosensitizer cell binding (fluorescence, Fig. 7a) ([7]; replicate 1): 507603
Photosensitizer cell binding (fluorescence, Fig. 7a) ([7]; replicate 2): 505554
Photosensitizer cell binding (fluorescence, Fig. 7a) ([7]; replicate 3): 480665
Extracellular ATP ([8]; replicate 1): 52.31 nM
Extracellular ATP ([8]; replicate 2): 40.65 nM
Extracellular ATP ([8]; replicate 3): 40.42 nM
